{"source": "patent US5491129A", "about": "“Synthetic peptides derived from vitronectin and pharmaceutical compositions comprising them” (Yeda Research and Development Co. Ltd., priority 1992, dated 1996)", "key": {"[1]": {"molecular_target": "T1, PAI-1 (Homo sapiens, UniProt P05121)", "T1 sequence (P05121 24-402)": "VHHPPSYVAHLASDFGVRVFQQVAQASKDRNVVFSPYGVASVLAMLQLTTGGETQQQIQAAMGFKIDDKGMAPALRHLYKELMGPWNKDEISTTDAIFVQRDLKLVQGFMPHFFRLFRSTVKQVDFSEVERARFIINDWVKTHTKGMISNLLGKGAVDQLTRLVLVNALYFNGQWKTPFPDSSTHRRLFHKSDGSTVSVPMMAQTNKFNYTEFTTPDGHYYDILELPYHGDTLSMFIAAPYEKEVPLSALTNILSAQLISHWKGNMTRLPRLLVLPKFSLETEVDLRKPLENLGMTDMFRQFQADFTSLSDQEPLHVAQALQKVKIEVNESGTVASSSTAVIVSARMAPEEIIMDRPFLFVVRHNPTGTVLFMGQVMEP", "test": "Competition ELISA: binding of vitronectin onto immobilized activated PAI-1", "set-up": "purchased American Diagnostica, New York", "details": "for level of inhibition achieved: FIG. 7, vitronectin 0.5 μg/ml, increasing peptide concentrations", "protocol": "Protein concentration was determined by the method described by Bradford, 1976. The binding of vitronectin to immobilized PAI-1 was conducted as described by Salonen et al., 1989. The activation of PAI-1 by sodium dodecylsulfate was carried out as described by Katagiri et al., 1988. Amino acid sequencing was performed with an Applied Biosystem 475A sequencer.\nEach of the synthetic peptides shown in Scheme I and each of the peptides containing amino acids with a D configuration (BP7, BP8 and BP14) was tested by a competition ELISA assay for its ability to inhibit the binding of vitronectin to immobilized activated PAI-1. The first screening (FIGS. 3A-3D) was carried out with an identical molar concentration (25 μM) of the peptides. In view of a possible variability in such tests (mainly due to some variability in the activated PAI-1 coating of the plates), a control of vitronectin alone was run alongside in each plate for reference.\nThe various synthetic peptides (all 50 μM) were dissolved in 50 μl of a buffer composed of PBS, Tween 20 (0.01%), polyethylene-glycol (average M.W. 8 kDa) (4% w/v). Each of the samples was added to a microtiter well coated with SDS-activated PAI, prepared as described by Katagiri et al., 1988. After an incubation of 30 min at 22° C., aliquots (50 μl) of a vitronectin solution (at various concentrations) in the same buffer were added to each well. This was followed by an incubation for 2 hrs at 37° C. The amount of bound vitronectin was determined with specific rabbit anti-human Vn antibodies (1:1000 dilution), followed by a β-galactosidase-linked protein A and using o-nitrophenyl-β-D-galactopyranoside (ONPG) as a substrate. The enzymatic reaction was allowed to proceed and the absorbance at 405+490 nm was measured. Each point in the graphs represents the mean of triplicate determinations. […]"}, "[2]": {"molecular_target": "T1, PAI-1", "test": "Release of PAI-1 activity by endothelial cells in culture", "format": "cell-based", "details": "human endothelial cell system, 6 hours, control = 100%", "protocol": "PAI-1 is determined in the supernatant of HUVEC cells according to the method of Chmielewska et al., 1983. Briefly, cells are cultured in semiconfluent way with or without ECM. The culture medium is changed for Hank's balanced salt solution with 2% FCS and the tested substances with or without added plasmin (5 μg/ml) are diluted in this buffer and incubated with the cells for 6 hours. Samples from the cell supernatant are assayed for the PAI-1 activity.\nFor the PAI-1 assay, the cell supernatant is incubated with a fixed amount of tPA (40 U/ml) and the residual activity of the tPA is determined by a substrate composed of plasminogen (0.1μg/ml), chromogenic substrate (S-2251) and stimulator (Kabi, Sweden). After incubation with the substrate, O.D. is measured at 405 run and the amount of the inhibitor is calculated from calibration curve. PAI-1 antigen may also be determined with commercial kits."}}, "note": "Where a SMILES comes first, the peptide text is derived from it. Where no end group is shown, it is not given here."}
{"compound": "BP7: same sequence as BP6 (K348-Q363) but the underlined residues in Scheme II have D configuration (KKQRFRHRNRKGYRSQ; also: some residues are D-form, positions not given here (underlining not shown))", "values": [{"measurement": "binding to immobilized PAI-1 (effect on vitronectin binding)", "setting": "[1]; D-configuration peptides, 1-10 μM, FIG. 8", "value": "bind to immobilized PAI-1"}]}
{"compound": "C[C@H](NC(=O)[C@H](CCCNC(=N)N)NC(=O)[C@H](CO)NC(=O)[C@@H]1CCCN1C(=O)[C@H](CCCNC(=N)N)NC(=O)[C@H](CCCNC(=N)N)NC(=O)[C@H](CO)NC(=O)[C@H](CC(N)=O)NC(=O)[C@H](CCC(N)=O)NC(=O)[C@H](CC(N)=O)NC(=O)[C@H](CCCNC(=N)N)NC(=O)CNC(=O)[C@H](CCCNC(=N)N)NC(=O)[C@H](CO)NC(=O)[C@H](Cc1c[nH]cn1)NC(=O)CNC(=O)[C@H](CCCNC(=N)N)NC(=O)[C@H](CCC(N)=O)NC(=O)[C@@H](N)CO)C(=O)O", "note": "[BP4] (H-SQRGHSRGRNQNSRRPSRA-OH)", "values": [{"measurement": "PAI-1 activity increase over control at 10 µM", "setting": "[2]; 1 × 10^-5 M, read-out: PAI activity % above control (mean)", "value": 29, "unit": "%"}, {"measurement": "PAI-1 activity increase over control at 1 µM", "setting": "[2]; 1 × 10^-6 M, read-out: PAI activity % above control (mean)", "value": 47, "unit": "%"}, {"measurement": "PAI-1 activity increase over control at 0.1 µM", "setting": "[2]; 1 × 10^-7 M, read-out: PAI activity % above control (mean)", "value": 0, "unit": "%"}, {"measurement": "PAI-1 activity increase over control at 0.33 µM", "setting": "[2]; 3.3 × 10^-7 M, read-out: PAI activity % above control (mean)", "value": 17, "unit": "%"}, {"measurement": "level of inhibition achieved", "setting": "[1]", "value": "approximately 65%"}]}
{"compound": "N=C(N)NCCC[C@H](NC(=O)[C@H](Cc1ccc(O)cc1)NC(=O)CNC(=O)[C@H](CCCCN)NC(=O)[C@H](CCCNC(=N)N)NC(=O)[C@H](CC(N)=O)NC(=O)[C@H](CCCNC(=N)N)NC(=O)[C@H](Cc1c[nH]cn1)NC(=O)[C@H](CCCNC(=N)N)NC(=O)[C@H](Cc1ccccc1)NC(=O)[C@H](CCCNC(=N)N)NC(=O)[C@H](CCC(N)=O)NC(=O)[C@H](CCCCN)NC(=O)[C@@H](N)CCCCN)C(=O)N[C@@H](CO)C(=O)N[C@@H](CCC(N)=O)C(=O)O", "note": "[BP6] (H-KKQRFRHRNRKGYRSQ-OH)", "values": [{"measurement": "PAI-1 activity decrease below control at 10 µM", "setting": "[2]; 1 × 10^-5 M", "value": 19.5, "unit": "%"}, {"measurement": "PAI-1 activity decrease below control at 1 µM", "setting": "[2]; 1 × 10^-6 M", "value": 36.5, "unit": "%"}, {"measurement": "PAI-1 activity decrease below control at 0.1 µM", "setting": "[2]; 1 × 10^-7 M", "value": 19, "unit": "%"}, {"measurement": "PAI-1 activity decrease below control at 0.01 µM", "setting": "[2]; 1 × 10^-8 M", "value": 19, "unit": "%"}, {"measurement": "PAI-1 activity decrease below control at 0.33 µM", "setting": "[2]; 3.3 × 10^-7 M", "value": 39, "unit": "%"}, {"measurement": "level of inhibition achieved", "setting": "[1]", "value": "approximately 65%"}]}
{"compound": "N=C(N)NCCC[C@H](NC(=O)CNC(=O)[C@H](CCCNC(=N)N)NC(=O)[C@H](CO)NC(=O)[C@H](Cc1c[nH]cn1)NC(=O)CNC(=O)[C@H](CCCNC(=N)N)NC(=O)[C@H](CCC(N)=O)NC(=O)[C@H](CO)NC(=O)[C@H](CCCNC(=N)N)NC(=O)[C@H](Cc1ccc(O)cc1)NC(=O)CNC(=O)[C@@H](N)CCCCN)C(=O)O", "note": "[BP5] (H-KGYRSQRGHSRGR-OH)", "values": [{"measurement": "level of inhibition achieved", "setting": "[1]", "value": "approximately 65%"}]}
